Results reported in patent publication US20230117034A1, “PYRAZOLOTRIAZINES” (Bayer Aktiengesellschaft, priority 2019, published 2023).

Legend:
[1] = target: T1, CDK12 (nuclear staining in CAL-120 cells) (Homo sapiens, UniProt Q9NYV4); assay: CDK12 nuclear protein level: immunofluorescence/high content analysis (CAL-120); assay type: cell-based; details: for DC50: CAL-120 cells, 24 h, immunofluorescence, 50% reduction of nuclear CDK12 staining intensity, median, read-out: CDK12 degradation IF, DC50- [mol/l] (median); for (IC50 CDK12 high ATP) to (Degradation DC50 CDK12) ratio: ratio of IC50 CDK12 high ATP kinase assay to DC50 CDK12 degradation (IF, CAL-120)
T1 construct: endogenous in cells; host or cells: CAL-120 human breast cancer cells (DSMZ ACC 459)
How it was run: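 DC50 is the degrader concentration that halves nuclear CDK12 immunofluorescence relative to controls, measured by high-content imaging. CAL-120 cells were exposed to compound for 24 h at 37 °C before PFA fixation, and signal was normalized to DMSO and control wells.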

[2] = tested on: CAL-120, human breast adenocarcinoma cells; assay: Proliferation assay CAL-120 (crystal violet, 4 days); assay type: cell-based; details: Homo sapiens, CAL-120, 96 h, CAL-120 cells, median, read-out: Prolif-CAL-120, IC50-[mol/l] (median)
How it was run: (§1)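 Crystal violet proliferation read-out after 4 days of compound exposure (0.01-10 µmol/L; solvent 0.1% DMSO). Extinction at 595 nm, set between zero-point (0%) and vehicle (100%), fitted with 4 parameters to give IC50.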

[3] = tested on: MDA-MB-231, human breast cancer cells; assay: Proliferation assay MDA-MB-231 (crystal violet, 4 days); assay type: cell-based; details: Homo sapiens, MDA-MB-231, 96 h, MDA-MB-231 cells, median, read-out: Prolif-MDA MB-231, IC50-[mol/l] (median)
How it was run: as §1

[4] = target: T2, CYCLIN K (nuclear staining in CAL-120 cells) (Homo sapiens, UniProt O75909); assay: CYCLIN K nuclear protein level: immunofluorescence high content analysis (CAL-120); assay type: cell-based; details: 24 h, 50% reduction of nuclear CCNK staining intensity, median, read-out: CYCLIN K degradation IF, DC50-[mol/l] (median)
T2 construct: endogenous in cells; host or cells: CAL-120 human breast cancer cells (DSMZ ACC 459)
How it was run: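 Readout is automated confocal image analysis of nuclear cyclin K immunofluorescence (Hoechst nuclei) after PFA fixation. Cells were CAL-120, exposed to compound dose-response 24 h at 37 °C; values are DC50 for halving nuclear CCNK signal relative to DMSO and control wells.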

[5] = tested on: BRCA1 mRNA expression in MDA-MB-231 cells; assay: qRT-PCR assay: BRCA1 mRNA expression in MDA-MB-231; assay type: cell-based, human; details: Homo sapiens, MDA-MB-231, Inhibition of BRCA1 mRNA expression in MDA-MB-231 cells; median; read-out: RTqPCR-MDA-MB-231, IC50, BRCA1 (median)
How it was run: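 Human breast cancer cells, 200,000/well, were treated with test agents for 24 h without interruption after a 24 h settling period. Gene expression came from qPCR on cDNA made from 600 ng RNA, relative to GAPDH.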

T2 sequence (O75909 whole entry): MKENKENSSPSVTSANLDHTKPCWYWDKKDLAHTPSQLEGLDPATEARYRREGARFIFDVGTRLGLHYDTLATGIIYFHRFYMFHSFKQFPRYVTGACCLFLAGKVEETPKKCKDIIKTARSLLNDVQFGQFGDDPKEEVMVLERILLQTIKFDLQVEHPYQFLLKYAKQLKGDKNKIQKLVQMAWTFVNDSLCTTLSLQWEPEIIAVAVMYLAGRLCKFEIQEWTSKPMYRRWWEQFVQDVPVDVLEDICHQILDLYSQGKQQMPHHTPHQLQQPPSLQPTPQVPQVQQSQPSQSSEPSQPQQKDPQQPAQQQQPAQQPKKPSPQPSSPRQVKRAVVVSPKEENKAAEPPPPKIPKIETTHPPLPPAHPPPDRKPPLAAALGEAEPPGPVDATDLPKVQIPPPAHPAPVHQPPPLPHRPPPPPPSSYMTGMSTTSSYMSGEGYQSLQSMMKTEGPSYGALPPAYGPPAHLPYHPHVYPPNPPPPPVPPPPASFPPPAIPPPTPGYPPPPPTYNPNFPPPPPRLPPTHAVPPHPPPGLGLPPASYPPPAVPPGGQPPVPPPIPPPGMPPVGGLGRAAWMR
T2 sequence (Q9NYV4 whole entry partner): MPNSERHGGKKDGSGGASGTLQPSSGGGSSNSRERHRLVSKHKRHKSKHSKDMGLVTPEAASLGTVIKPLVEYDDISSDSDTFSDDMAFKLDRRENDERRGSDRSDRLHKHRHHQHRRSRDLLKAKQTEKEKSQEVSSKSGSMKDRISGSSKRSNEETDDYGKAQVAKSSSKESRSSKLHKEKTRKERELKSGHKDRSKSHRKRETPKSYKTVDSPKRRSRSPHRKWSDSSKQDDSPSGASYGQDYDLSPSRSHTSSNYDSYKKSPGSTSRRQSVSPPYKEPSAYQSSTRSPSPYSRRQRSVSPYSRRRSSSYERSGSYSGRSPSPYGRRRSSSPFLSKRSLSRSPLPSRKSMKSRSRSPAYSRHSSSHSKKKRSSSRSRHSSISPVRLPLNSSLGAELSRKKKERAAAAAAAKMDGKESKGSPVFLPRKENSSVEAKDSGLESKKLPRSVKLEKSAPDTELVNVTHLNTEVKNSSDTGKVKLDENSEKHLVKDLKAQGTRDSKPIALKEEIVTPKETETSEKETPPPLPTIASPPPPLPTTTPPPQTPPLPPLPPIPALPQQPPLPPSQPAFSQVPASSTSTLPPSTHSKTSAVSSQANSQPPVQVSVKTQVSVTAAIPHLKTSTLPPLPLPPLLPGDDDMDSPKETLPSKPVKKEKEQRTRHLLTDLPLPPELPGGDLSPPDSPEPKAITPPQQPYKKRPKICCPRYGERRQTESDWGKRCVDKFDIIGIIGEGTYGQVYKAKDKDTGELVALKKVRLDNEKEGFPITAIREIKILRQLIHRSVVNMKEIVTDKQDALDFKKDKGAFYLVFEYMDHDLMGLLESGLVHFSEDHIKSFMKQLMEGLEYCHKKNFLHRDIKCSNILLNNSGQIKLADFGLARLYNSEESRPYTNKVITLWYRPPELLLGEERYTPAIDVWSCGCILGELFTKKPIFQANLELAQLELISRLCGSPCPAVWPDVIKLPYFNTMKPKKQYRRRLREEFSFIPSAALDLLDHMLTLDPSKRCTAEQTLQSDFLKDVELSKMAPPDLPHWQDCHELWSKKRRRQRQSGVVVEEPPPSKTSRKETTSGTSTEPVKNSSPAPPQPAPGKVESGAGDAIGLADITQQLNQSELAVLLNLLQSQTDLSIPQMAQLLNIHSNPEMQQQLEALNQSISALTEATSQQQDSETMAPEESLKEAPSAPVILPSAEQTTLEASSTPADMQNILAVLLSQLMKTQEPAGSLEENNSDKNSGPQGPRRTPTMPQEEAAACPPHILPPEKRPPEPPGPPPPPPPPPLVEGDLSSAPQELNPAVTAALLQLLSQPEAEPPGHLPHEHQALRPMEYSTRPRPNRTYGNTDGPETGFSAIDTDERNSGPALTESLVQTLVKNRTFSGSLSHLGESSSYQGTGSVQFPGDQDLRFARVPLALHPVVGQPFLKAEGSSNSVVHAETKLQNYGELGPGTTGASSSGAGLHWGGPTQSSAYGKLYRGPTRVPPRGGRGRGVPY
T1 sequence (Q9NYV4 whole entry): as the sequence (Q9NYV4 whole entry partner) above
T1 sequence (O75909 whole entry partner): as the sequence (O75909 whole entry) above

| Structure (SMILES) | DC50 [1] [µM] | (IC50 CDK12 high ATP) to (Degradation DC50 CDK12) ratio [1] | IC50 [2] [µM] | IC50 [3] [µM] | DC50 [4] [µM] | IC50 [5] [µM] |
| --- | --- | --- | --- | --- | --- | --- |
| Brc1cnn2c(NCc3nc4ccccc4[nH]3)nc(OC3CCNCC3)nc12 [Example 411, N-[(1H-benzimidazol-2-yl)methyl]-8-bromo-2-[(piperidin-4-yl)oxy]pyrazolo[1,5-a][1,3,5]triazin-4-amine] | 0.0448 | >446 | 0.079 | 0.138 | 0.0159 |  |
| CN1CCN(c2nc(NCc3nc4ccccc4[nH]3)n3ncc(C4CC4(F)F)c3n2)CC1 (stereo not shown) [Example 428, N-(1H-benzimidazol-2-ylmethyl)-8-(2,2-difluorocyclopropyl)-2-(4-methylpiperazin-1-yl)pyrazolo[1,5-a][1,3,5]triazin-4-amine] | 0.00703 | >2847 | 0.0474 | 0.174 | 0.00619 |  |
| CC(C)(O)COc1nc(NCc2nc3ccccc3[nH]2)n2ncc(Br)c2n1 [Example 398, 1-[(4-{[(1H-benzimidazol-2-yl)methyl]amino}-8-bromopyrazolo[1,5-a][1,3,5]triazin-2-yl)oxy]-2-methylpropan-2-ol] | 0.0662 | 221 | 0.0674 | 0.0592 | 0.0104 |  |
| N#Cc1cccc(-c2nnc(CNc3nc(N4CCOCC4)nc4c(Br)cnn34)[nH]2)c1 [Example 55, 3-[5-({[8-bromo-2-(morpholin-4-yl)pyrazolo[1,5-a][1,3,5]triazin-4-yl]amino}methyl)-4H-1,2,4-triazol-3-yl]benzonitrile] | 0.00343 | 224 | 0.00628 |  | 0.000843 | 0.00476 |
| C[C@H]1COCCN1c1nc(NCc2nc3ccccc3[nH]2)n2ncc(Br)c2n1 [Example 57, N-[(1H-benzimidazol-2-yl)methyl]-8-bromo-2-[(3S)-3-methylmorpholin-4-yl]pyrazolo[1,5-a][1,3,5]triazin-4-amine] | 0.00155 | 669 | 0.00314 |  | 0.000189 | 0.00152 |
| Brc1cnn2c(NCc3nc4ccccc4[nH]3)nc(N3CC4(COC4)C3)nc12 [Example 48, N-[(1H-benzimidazol-2-yl)methyl]-8-bromo-2-(2-oxa-6-azaspiro[3.3]heptan-6-yl)pyrazolo[1,5-a][1,3,5]triazin-4-amine] | 0.0207 | >276 | 0.12 |  | 0.00703 | 0.0942 |
| Cn1cc(-c2cnn3c(NCc4nc5c(F)c(F)ccc5[nH]4)nc(N4CCOCC4)nc23)cn1 [Example 418, N-[(4,5-difluoro-1H-benzimidazol-2-yl)methyl]-8-(1-methyl-1H-pyrazol-4-yl)-2-(morpholin-4-yl)pyrazolo[1,5-a][1,3,5]triazin-4-amine] | 0.039 | >513 | 0.0644 | 0.246 | 0.0024 |  |
| CN1CCN(c2nc(NCc3nc4ccccc4[nH]3)n3ncc(CC(F)(F)F)c3n2)CC1 [Example 436, N-[(1H-benzimidazol-2-yl)methyl]-2-(4-methylpiperazin-1-yl)-8-(2,2,2-trifluoroethyl)pyrazolo [1,5-a][1,3,5]triazin-4-amine] | 0.0147 | >1357 | 0.108 | 0.416 | 0.0159 |  |
| C[C@@H]1COCCN1c1nc(NCc2nc3ccccc3[nH]2)n2ncc(Br)c2n1 [Example 56, N-[(1H-benzimidazol-2-yl)methyl]-8-bromo-2-[(3R)-3-methylmorpholin-4-yl]pyrazolo[1,5-a][1,3,5]triazin-4-amine] | 0.0151 | 352 | 0.0173 |  | 0.00219 | 0.0218 |
| OC[C@@H]1CCCCN1c1nc(NCc2nc3ccccc3[nH]2)n2ncc(Br)c2n1 [Example 59, [(2S)-1-(4-{[(1H-benzimidazol-2-yl)methyl]amino}-8-bromopyrazolo[1,5-a][1,3,5]triazin-2-yl)piperidin-2-yl]methanol] | 0.00526 | 104 | 0.0125 |  | 0.00285 | 0.0305 |
| Clc1ccc(-c2nnc(CNc3nc(N4CCOCC4)nc4c(Br)cnn34)[nH]2)cc1 [Example 45, 8-bromo-N-{[5-(4-chlorophenyl)-4H-1,2,4-triazol-3-yl]methyl}-2-(morpholin-4-yl)pyrazolo[1,5-a][1,3,5]triazin-4-amine] | 0.0692 | 32 | 0.0891 |  | 0.0444 | 0.099 |
| Clc1cccc(-c2nnc(CNc3nc(N4CCOCC4)nc4c(Br)cnn34)[nH]2)c1 [Example 51, 8-bromo-N-{[5-(3-chlorophenyl)-4H-1,2,4-triazol-3-yl]methyl}-2-(morpholin-4-yl)pyrazolo[1,5-a][1,3,5]triazin-4-amine] | 0.00781 | 222 | 0.00943 |  | 0.00315 | 0.0058 |
| Brc1cnn2c(NCc3nc4ccccc4[nH]3)nc(N3CCCCC3)nc12 [Example 46, N-[(1H-benzimidazol-2-yl)methyl]-8-bromo-2-(piperidin-1-yl)pyrazolo[1,5-a][1,3,5]triazin-4-amine] | 0.018 | 186 | 0.238 |  | 0.00154 | 0.0125 |
| Brc1cnn2c(NCc3nnc(-c4cccnc4)[nH]3)nc(N3CCOCC3)nc12 [Example 53, 8-bromo-2-(morpholin-4-yl)-N-{[5-(pyridin-3-yl)-4H-1,2,4-triazol-3-yl]methyl}pyrazolo[1,5-a][1,3,5]triazin-4-amine] | 0.0472 | 43 | 0.106 |  | 0.00925 | 0.0771 |
| Brc1cnn2c(NCc3nnc(-c4ccccn4)[nH]3)nc(N3CCOCC3)nc12 [Example 54, 8-bromo-2-(morpholin-4-yl)-N-{[5-(pyridin-2-yl)-4H-1,2,4-triazol-3-yl]methyl}pyrazolo[1,5-a][1,3,5]triazin-4-amine] | 0.0378 | 150 | 0.0538 |  | 0.0102 | 0.0662 |
| Cn1cc(-c2cnn3c(NCc4nc5cc(Cl)c(Cl)cc5[nH]4)nc(N4CCOCC4)nc23)cn1 [Example 419, N-[(5,6-dichloro-1H-benzimidazol-2-yl)methyl]-8-(1-methyl-1H-pyrazol-4-yl)-2-(morpholin-4-yl)pyrazolo[1,5-a][1,3,5]triazin-4-amine] | 0.0387 | >517 | 0.0795 | 0.228 | 0.00909 |  |
| Brc1cnn2c(NCc3nc4ccccc4[nH]3)nc(N3CCCC3)nc12 [Example 47, N-[(1H-benzimidazol-2-yl)methyl]-8-bromo-2-(pyrrolidin-1-yl)pyrazolo[1,5-a][1,3,5]triazin-4-amine] | 0.00575 | 1252 | 0.0239 |  | 0.00398 | 0.0232 |
